Data reported in US20120142028A1, “[…] […] ANTI-CANCER RESPONSE TO EPIDERMAL GROWTH FACTOR RECEPTOR KINASE INHIBITORS” (OSI Pharmaceuticals, LLC, priority 2009, published 2012).
“And” between values parts separate entries of the source, which are not always exact repeats. Equal values may be shown once. “Also recorded” adds a separate entry of the source.

Test system: patients who had had progression after standard chemotherapy for non-small-cell lung cancer
Test: NCIC CTG BR.21 Phase 3 trial of TARCEVA vs placebo; survival and PFS by tumor E-cadherin/vimentin IHC status
Format: in vivo, human
Details: for Hazard Ratio (H/L) (95% CI) / Median Survival / Median PFS: Erlotinib arm; for Hazard Ratio (95% CI): Erlotinib vs. Placebo; for Median PFS: progression free survival
Experimental: The NCIC CTG. BR.21 study was a Phase 3 trial of TARCEVA® involving patients who had had progression after standard chemotherapy for non-small-cell lung cancer (i.e. 2nd and 3rd line NSCLC; Shepherd F A, et al. N Engl. J. Med 2005; 353:123-132.). Patients were randomly assigned in a 2:1 ratio to receive 150 mg of TARCEVA® (erlotinib HCl) daily or placebo. The primary end point was overall survival. Progression free survival and response were secondary end points. Separate written consent was obtained for optional tissue banking and correlative studies.
Because the BR21 trial is one of the few TARCEVA® clinical trials that includes a large number of patients and an untreated placebo group, it is optimally designed to evaluate the predictive and prognostic potential of biomarkers. As such, the potential of vimentin and E-cadherin protein expression to serve as a predictive biomarker for overall survival and […] was assessed using remaining tumor samples from the BR21 study. IHC analysis of tumor tissue samples received from NCIC was used to determine E-Cadherin and vimentin protein expression. Sensitivity analyses were performed to determine optimal cut points for E-Cadherin and vimentin staining for classification of E-Cadherin and vimentin as “High” or “Low” for use as prognostic and/or predictive markers for survival and progression-free survival. Further analyses were performed to evaluate possible correlations of biomarker status with clinical outcomes of survival, progression-free survival, response and disease control.
Stained slides were scored by an experienced pathologist. Slides were first evaluated for quality of tissue and quality of staining Acceptable slides were then evaluated, with the pathologist generating an ‘H-1-score’ based on a subjective interpretation of the staining intensity of the chromagen labeled antibody. Four intensity levels were used in scoring the stained sections: 0 for no staining, +1 for weak or minimal staining, +2 for moderate staining, and +3 for strong staining. The relative percentage of total target cells expressing an intensity level is recorded as data.
Treatment groups as randomized (ITT population) were analyzed using all patients with evaluable tissue. Disease progression as assessed by the investigator was used for PFS (Progression Free Survival) analysis. Potential predictive benefit of E-Cadherin or vimentin expression was assessed by comparing trends in the hazard ratios. No treatments by biomarker interaction tests were performed. Three Scoring Methods were used for E-Cadherin and Vimentin: • 1. % Any Staining of tumor cells • 2. % of tumor cell Staining of Intensity +2 or +3 • 3. Composite Score Example: A sample read as 5% unstained, 35% staining of intensity +1, 45% staining of intensity +2, and 15% staining of intensity +3, would be scored as follows: • 95% any staining • 60% staining of intensity +2 or +3 • 0(5)+1(35)+2(45)+3(15)=Composite Score of 170 Overall survival is defined as the time from the study treatment start date to the date of death. If the patient receives the study treatment but the patient is still alive or a death date is unavailable, overall survival is calculated as the difference between the study treatment start date and the last date the patient was known to be alive. […] Progression free survival (PFS) is defined as the time from the study treatment start date to the documentation date of disease progression or the death date. As with overall survival, if no progression/death date is available, the PFS is calculated as the time from the study treatment start date to the last documented tumor assessment date, and is noted to be “censored”.
Table 6 illustrates the numbers of patients in each treatment arm who were E-Cadherin high vs. low, and vimentin high vs. low for the subset of patients for whom E-Cadherin and vimentin results were available (N=95). P-values are determined from univariate Kaplan-Meier analyses. […]

[1] = overall survival, E-Cadherin High
[2] = overall survival, E-Cadherin Low
[3] = overall survival, E-Cadherin/Vimentin High/High
[4] = overall survival, E-Cadherin/Vimentin High/Low
[5] = overall survival, E-Cadherin/Vimentin Low/High
[6] = overall survival, E-Cadherin/Vimentin Low/Low
[7] = overall survival, Patients with Known E-Cadherin Results
[8] = overall survival, Patients with Known Vimentin Results
[9] = overall survival, Vimentin High

`C#Cc1cccc(Nc2ncnc3cc(OCCOC)c(OCCOC)cc23)c1` [Erlotinib, [6,7-bis(2-methoxyethoxy)-4-quinazolin-4-yl]-(3-ethynylphenyl)amine] was tested, and the “Kaplan-Meier overall survival, Erlotinib arm compared to Placebo arm” value (E-Cadherin high subset (FIG. 3)) was “more favorable”, the “Kaplan-Meier progression free survival, Erlotinib arm compared to Placebo arm” value (E-Cadherin high subset (FIG. 4)) was “more favorable” and the “Kaplan-Meier overall survival, Erlotinib arm compared to Placebo arm” value (E-Cadherin low subset (FIG. 3)) was “switched in direction but smaller in magnitude”. The “Kaplan-Meier progression free survival, Erlotinib arm compared to Placebo arm” value (E-Cadherin low subset (FIG. 4)) was “switched in direction but smaller in magnitude”, the “Kaplan-Meier overall survival, E-Cadherin high subset compared to E-Cadherin low subset” value (Erlotinib arm (FIG. 3)) was “more favorable” and the “Kaplan-Meier progression free survival, E-Cadherin high subset compared to E-Cadherin low subset” value (Erlotinib arm (FIG. 4)) was “more favorable”. For the same compound, the “Kaplan-Meier overall survival, vimentin high subset compared to vimentin low subset” value (Erlotinib arm (FIG. 5)) was “more favorable; also recorded: longer”, the “Kaplan-Meier progression free survival, vimentin high subset compared to vimentin low subset” value (Erlotinib arm (FIG. 6)) was “more favorable; also recorded: longer” and the “Hazard Ratio (H/L) (95% CI)” value (PFS, E-Cadherin High vs. E-Cadherin Low (cut-point 40% staining of intensity +2 or +3)) was 0.571 and 0.57. For the same compound, the “Hazard Ratio (H/L) (95% CI)” value (PFS, Vimentin High vs. Vimentin Low) was 0.43, the “Hazard Ratio (95% CI)” value (PFS, All Patients) was 0.64 and the “Hazard Ratio (95% CI)” value (PFS, E-Cadherin High) was 0.52. The “Hazard Ratio (95% CI)” value (PFS, E-Cadherin Low) was 1.18, the “Hazard Ratio (95% CI)” value (PFS, E-Cadherin/Vimentin High/High) was 0.235 and the “Hazard Ratio (95% CI)” value (PFS, E-Cadherin/Vimentin High/Low) was 0.73. For the same compound, the “Hazard Ratio (95% CI)” value (PFS, E-Cadherin/Vimentin Low/High) was 0.24, the “Hazard Ratio (95% CI)” value (PFS, E-Cadherin/Vimentin Low/Low) was 2.75 and the “Hazard Ratio (95% CI)” value (PFS, Patients with Known E-Cadherin Results) was 0.72. The “Hazard Ratio (95% CI)” value (PFS, Patients with Known Vimentin Results) was 0.72, the “Hazard Ratio (95% CI)” value (PFS, Vimentin High) was 0.28 and the “Hazard Ratio (95% CI)” value (PFS, Vimentin Low) was 1.11. The “Median Survival” value (overall survival, All Patients) was 6.67 Months, the “Median Survival” value [1] was 11.3 Months and the “Hazard Ratio (H/L) (95% CI)” value (overall survival, E-Cadherin High vs. E-Cadherin Low (cut-point 40% staining of intensity +2 or +3)) was 0.682 and 0.68. For the same compound, the “Median Survival” value [2] was 4.86 Months, the “Median Survival” value [3] was 10.38 Months and the “Median Survival” value [4] was 12.06 Months. The “Median Survival” value [5] was 10.7 Months, the “Median Survival” value [6] was 4.81 Months and the “Median Survival” value [7] was 8.44 Months. For the same compound, the “Median Survival” value [8] was 8.44 Months, the “Median Survival” value [9] was 10.55 Months and the “Hazard Ratio (H/L) (95% CI)” value (overall survival, Vimentin High vs. Vimentin Low) was 0.65. The “Median Survival” value (overall survival, Vimentin Low) was 6.11 Months, the “Hazard Ratio (95% CI)” value (overall survival, All Patients) was 0.76 and the “Hazard Ratio (95% CI)” value [1] was 0.47. For the same compound, the “Hazard Ratio (95% CI)” value [2] was 1.12, the “Hazard Ratio (95% CI)” value [3] was 0.31 and the “Hazard Ratio (95% CI)” value [4] was 0.57. The “Hazard Ratio (95% CI)” value [5] was 0.26, the “Hazard Ratio (95% CI)” value [6] was 2.44 and the “Hazard Ratio (95% CI)” value [7] was 0.69. For the same compound, the “Hazard Ratio (95% CI)” value [8] was 0.69, the “Hazard Ratio (95% CI)” value [9] was 0.26 and the “Hazard Ratio (95% CI)” value (overall survival, Vimentin Low) was 0.99. The “Median PFS” value (All Patients) was 2.23 Months, the “Median PFS” value (E-Cadherin High) was 3.68 Months and the “Median PFS” value (E-Cadherin Low) was 1.97 Months. The “Median PFS” value (E-Cadherin/Vimentin High/High) was 8.02 Months, the “Median PFS” value (E-Cadherin/Vimentin High/Low) was 2.66 Months and the “Median PFS” value (E-Cadherin/Vimentin Low/High) was 3.61 Months. For the same compound, the “Median PFS” value (E-Cadherin/Vimentin Low/Low) was 1.69 Months, the “Median PFS” value (Patients with Known E-Cadherin Results) was 2.38 Months and the “Median PFS” value (Patients with Known Vimentin Results) was 2.38 Months. The “Median PFS” value (Vimentin High) was 5.39 Months, the “Median PFS” value (Vimentin Low) was 2.18 Months and the “survival when treated with TARCEVA” value (subset of treated patients with high E-cadherin expression) was “longer survival”. The “survival when treated with TARCEVA” value (subset of treated patients with high vimentin expression) was “significantly longer survival”, the “Kaplan-Meier overall survival, Erlotinib arm compared to Placebo arm” value (vimentin high subset (FIG. 5)) was “more favorable” and the “Kaplan-Meier progression free survival, Erlotinib arm compared to Placebo arm” value (vimentin high subset (FIG. 6)) was “more favorable”. For the same compound, the “Kaplan-Meier overall survival, Erlotinib arm compared to Placebo arm” value (vimentin low subset (FIG. 5)) was “no difference” and the “Kaplan-Meier progression free survival, Erlotinib arm compared to Placebo arm” value (vimentin low subset (FIG. 6)) was “no difference”.
